Here are results for two compounds from US20170275287A1, “NOVEL N2, N4, N7, 6-TETRASUBSTITUTED PTERIDINE-2,4,7-TRIAMINE AND 2, 4, 6, 7-TETRASUBSTITUTED PTERIDINE COMPOUNDS AND METHODS OF SYNTHESIS AND USE THEREOF” (Janus Biotherapeutics, Inc., priority 2014, published 2017).

Data set [1] is described as follows: LogD, pH 7.4. The format is physicochemical.
The target in data set [2] is T1, TLR7 (Homo sapiens, UniProt Q9NYK1).
T1 sequence (Q9NYK1 27-1049): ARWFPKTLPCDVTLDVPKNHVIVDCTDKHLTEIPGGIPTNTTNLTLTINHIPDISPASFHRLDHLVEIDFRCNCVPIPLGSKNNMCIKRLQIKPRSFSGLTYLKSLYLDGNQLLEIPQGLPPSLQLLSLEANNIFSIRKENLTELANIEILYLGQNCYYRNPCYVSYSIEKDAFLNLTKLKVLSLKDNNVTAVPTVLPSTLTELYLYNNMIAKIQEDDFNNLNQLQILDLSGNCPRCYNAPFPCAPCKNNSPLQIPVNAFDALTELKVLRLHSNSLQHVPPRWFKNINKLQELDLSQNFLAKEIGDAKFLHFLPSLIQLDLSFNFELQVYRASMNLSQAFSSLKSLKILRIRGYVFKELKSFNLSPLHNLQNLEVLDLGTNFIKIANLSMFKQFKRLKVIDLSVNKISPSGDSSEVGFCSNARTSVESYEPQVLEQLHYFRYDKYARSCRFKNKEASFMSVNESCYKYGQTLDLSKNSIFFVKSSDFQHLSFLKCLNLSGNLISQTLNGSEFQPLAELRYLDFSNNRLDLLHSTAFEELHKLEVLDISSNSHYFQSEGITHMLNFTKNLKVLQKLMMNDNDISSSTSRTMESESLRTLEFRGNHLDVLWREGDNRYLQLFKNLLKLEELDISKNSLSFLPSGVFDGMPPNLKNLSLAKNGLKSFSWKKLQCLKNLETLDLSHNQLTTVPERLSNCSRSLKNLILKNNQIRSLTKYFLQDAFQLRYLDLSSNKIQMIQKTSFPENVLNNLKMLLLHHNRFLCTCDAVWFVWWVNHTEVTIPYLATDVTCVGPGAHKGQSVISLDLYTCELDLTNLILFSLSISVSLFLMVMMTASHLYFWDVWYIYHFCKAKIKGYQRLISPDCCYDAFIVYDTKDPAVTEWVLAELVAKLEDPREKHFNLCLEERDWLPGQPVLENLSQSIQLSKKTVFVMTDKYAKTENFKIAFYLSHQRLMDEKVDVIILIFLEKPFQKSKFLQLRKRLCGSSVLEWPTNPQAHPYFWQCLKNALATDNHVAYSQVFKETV
Kind of data set: Antagonist/agonist competitive inhibition cross titration (TLR7 agonist JB6011). It counts as cell-based. To be noted: antagonist 10 uM to 4 nM vs agonist 0.12-3.3 μM; preliminary, one assay. The method, then:
In preliminary results (i.e., one assay result—repeat assays in process), a cross titration of antagonist versus agonist was performed to determine the form of antagonist binding. JB6121 was titrated from 10 uM to 4 nM against various concentrations of challenge agonist. The small molecule TLR7 agonist JB6011 was used. The graph below, while crude, implies that the inhibition of the TLR7 agonist by JB6121 is competitive in nature due to the parallel tracking of the curves as the agonist dose is increased. The agonist range for this experiment was between 0.12 and 3.3 μM or about a 30-fold range.

Data set [3] has as its target T2, TLR7 (Mus musculus, UniProt P58681).
T2 construct: endogenous in cells
T2 sequence (P58681 27-1050): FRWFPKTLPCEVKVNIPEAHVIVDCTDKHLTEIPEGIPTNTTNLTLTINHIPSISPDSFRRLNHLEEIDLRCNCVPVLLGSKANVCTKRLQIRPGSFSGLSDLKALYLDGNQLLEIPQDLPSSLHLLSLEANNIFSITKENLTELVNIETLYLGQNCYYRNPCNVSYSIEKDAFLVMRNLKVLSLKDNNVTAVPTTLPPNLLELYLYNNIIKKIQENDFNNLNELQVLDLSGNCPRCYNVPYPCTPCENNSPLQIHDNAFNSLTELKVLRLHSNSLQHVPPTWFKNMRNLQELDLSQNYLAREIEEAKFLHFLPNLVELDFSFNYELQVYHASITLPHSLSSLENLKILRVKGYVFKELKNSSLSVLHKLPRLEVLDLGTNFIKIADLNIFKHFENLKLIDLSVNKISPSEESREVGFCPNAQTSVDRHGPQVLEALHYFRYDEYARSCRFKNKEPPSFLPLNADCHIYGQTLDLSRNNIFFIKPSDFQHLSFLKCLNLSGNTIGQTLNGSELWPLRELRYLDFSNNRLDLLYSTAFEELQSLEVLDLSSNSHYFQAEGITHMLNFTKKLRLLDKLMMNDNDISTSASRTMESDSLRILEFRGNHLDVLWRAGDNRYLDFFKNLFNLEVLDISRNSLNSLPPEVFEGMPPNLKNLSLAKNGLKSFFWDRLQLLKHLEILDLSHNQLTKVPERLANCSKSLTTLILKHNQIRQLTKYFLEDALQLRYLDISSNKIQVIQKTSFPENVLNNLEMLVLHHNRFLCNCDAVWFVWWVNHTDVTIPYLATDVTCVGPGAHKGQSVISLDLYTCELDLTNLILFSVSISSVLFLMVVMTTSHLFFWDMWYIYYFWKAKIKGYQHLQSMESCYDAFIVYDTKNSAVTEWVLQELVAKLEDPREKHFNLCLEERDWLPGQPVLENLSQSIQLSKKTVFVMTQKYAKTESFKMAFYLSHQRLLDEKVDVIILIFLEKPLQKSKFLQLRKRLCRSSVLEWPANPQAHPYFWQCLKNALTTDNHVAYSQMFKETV
Kind of data set: In vivo TLR7 knockdown (JB6011 agonist challenge). Also on record: species or system mice. To be noted: for ED50: translated for a 25 gram mouse. As for the experimental part:
Mice were treated with test antagonist at varying doses at T=0 hr. Agonist treatment (CpG-DNA) dosed one hour later, T=1 hr for IP groups and two hours later, T=2 hr for PO groups. Necropsy performed 3 hours post agonist treatment, T=4 hr (IP groups) or T=5 hr (PO groups). Serum cytokines induced by the TLR agonist are measured by ELISA. Groups size per dose, n=3. The mean+/−SD of two independent ELISA's at differing serum dilutions is plotted.
JB6121 was also tested in vivo for TLR7 knockdown activity utilizing the TLR7 small molecule agonist JB6011 as the agonist challenge. […] This roughly translates to a 3.92 mg/kg IP dose and 11.44 mg/kg PO dose for a 25 gram mouse.

Molecules are shown by their SMILES. Read-outs that look alike come from different tables or passages of the source.

In data set [1], `CN1CCN(c2nc(NCCN3CCOCC3)c3nc(Cl)c(NCCN4CCOCC4)nc3n2)CC1` [JB6121, 6-chloro-2-(4-methylpiperazin-1-yl)-N^4,N^7-bis(2-morpholinoethyl)pteridine-4,7-diamine] yielded a logD of 0.995. Also, the “form of antagonist binding: inhibition of the TLR7 agonist JB6011” value in data set [2] is listed as “competitive”. For the same compound, the ED50 in data set [3] (4 h, IP, read-out: ID50, TLR7 knockdown, IP dose) is roughly 3.92 mg/kg; in data set [3] (5 h, PO, read-out: ID50, TLR7 knockdown, PO dose), roughly 11.4 mg/kg. In addition, the “ID50, TLR7 knockdown, IP injection” value in data set [3] (mice, IP, JB6011 challenge) was 98.34 μg injection dose. In addition, the “ID50, TLR7 knockdown, PO gavage” value in data set [3] (mice, PO, JB6011 challenge) stood at 286 μg delivery dose.

For `CCCCNc1nc(NCCN2CCOCC2)c2nc(Cl)c(NCCN3CCOCC3)nc2n1` [JB6140], the “form of antagonist binding: inhibition of the TLR7 agonist JB6011” value in data set [2] is reported as “comparable result”.

Usually logD stands for the decadic logarithm of the distribution of all forms, ionised or not, between an organic phase and buffer at a given pH.
